Test results: EP4613329A1, “COMPOUND FOR INHIBITING BRD PROTEIN” (Benobio Co., Ltd., priority 2024, dated 2025)

Key:
[1] = target: T1, BRD3 (BD1) (Homo sapiens, UniProt Q15059); test: Binding inhibitory effect on BRD3 protein (same manner as Experimental Example 1-1)
T1 construct: a bromodomain of BRD2 (BD1) and BRD3 (BD1), one of the BRD protein family; GST

[2] = target: T2, BRD2 (BD1) (Homo sapiens, UniProt P25440); test: Binding inhibitory effect on BRD2 protein (AlphaScreen, GST-BRD2 (BD1) / biotinylated acetyl-histone H4 peptide); conditions: 100 nM GST-BRD2 (BD1), 100 nM biotinylated acetyl-histone H4 (Lys5, 8, 12, 16) peptide
T2 construct: a bromodomain of BRD2 (BD1) and BRD3 (BD1), one of the BRD protein family
T2 sequence (P25440 74-180 limits assumed, species assumed): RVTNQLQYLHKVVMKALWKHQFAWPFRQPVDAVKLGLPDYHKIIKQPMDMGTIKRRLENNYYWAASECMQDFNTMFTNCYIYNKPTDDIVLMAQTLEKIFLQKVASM

T1 sequence (Q15059 34-140 limits assumed, species assumed): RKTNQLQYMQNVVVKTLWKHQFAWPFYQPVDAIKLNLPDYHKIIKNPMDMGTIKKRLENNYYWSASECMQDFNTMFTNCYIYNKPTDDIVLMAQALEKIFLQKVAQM

Structure (SMILES) | IC50 [1] | IC50 [2]
CNCc1ccc(-c2ccccc2-c2cccc3c2CN(C)C3=O)o1 [Compound 1, 2-methyl-4-(2-(5-((methylamino)methyl)furan-2-yl)phenyl)isoindoline-1-one] | 1.39 µM | 16.9 µM
CCNCc1ccc(-c2ccccc2-c2cccc3c2CN(C)C3=O)o1 [Compound 2, 2-methyl-4-(2-(5-((ethylamino)methyl)furan-2-yl)phenyl)isoindoline-1-one] | 1.26 µM | 16.8 µM
CCCNCc1ccc(-c2ccccc2-c2cccc3c2CN(C)C3=O)o1 [Compound 3, 2-methyl-4-(2-(5-((propylamino)methyl)furan-2-yl)phenyl)isoindoline-1-one] | 4.51 µM | 14.1 µM
COCNCc1ccc(-c2ccccc2-c2cccc3c2CN(C)C3=O)o1 [Compound 4, 2-methyl-4-(2-(5-((methoxymethylamino)methyl)furan-2-yl)phenyl)isoindoline-1-one] | 4.43 µM | 17.4 µM
CN(C)CCNCc1ccc(-c2ccccc2-c2cccc3c2CN(C)C3=O)o1 [Compound 5, 2-methyl-4-(2-(5-((dimethylaminoethylamino)methyl)furan-2-yl)phenyl)isoindoline-1-one] | 2.36 µM | 12.4 µM
C#CCN(C)Cc1ccc(-c2ccccc2-c2cccc3c2CN(C)C3=O)o1 [Compound 6] | 2.61 µM | 15.8 µM
CN1Cc2c(cccc2-c2ccccc2-c2ccc(CNC3CCCC3)o2)C1=O [Compound 7, 2-methyl-4-(2-(5-((cyclopentylamino)methyl)furan-2-yl)phenyl)isoindoline-1-one] | 4.35 µM | 18.2 µM
CC(C)NCc1ccc(-c2ccccc2-c2cccc3c2CN(C)C3=O)o1 [Compound 8, 2-methyl-4-(2-(5-((isopropylamino)methyl)furan-2-yl)phenyl)isoindoline-1-one] | 2.2 µM | –
CN1Cc2c(cccc2-c2ccccc2-c2ccc(CNCCS(C)(=O)=O)o2)C1=O [Compound 9] | 3.85 µM | 19.7 µM
CN1CCN(CCNCc2ccc(-c3ccccc3-c3cccc4c3CN(C)C4=O)o2)CC1 [Compound 10, 2-methyl-4-(2-(5-(((2-(4-methylpiperazine-1-yl)ethyl)amino)methyl)furan-2-yl)phenyl)isoindoline-1-one] | 3.89 µM | 11.4 µM
CN1Cc2c(cccc2-c2ccccc2-c2ccc(CN3CCN(S(C)(=O)=O)CC3)o2)C1=O [Compound 11] | 3.71 µM | 16.6 µM
CN1Cc2c(cccc2-c2ccccc2-c2ccc(CN3CCCCC3)o2)C1=O [Compound 12, 2-methyl-4-(2-(5-(piperidine-1-ylmethyl)furan-2-yl)phenyl)isoindoline-1-one] | 2.99 µM | 14.5 µM
CN1Cc2c(cccc2-c2ccccc2-c2ccc(CN3CCN(c4cccc(F)c4)CC3)o2)C1=O [Compound 14, 2-methyl-4-(2-(5-(((4-(3-fluorophenyl)piperazine-1-yl)methyl))furan-2-yl)phenyl)isoindoline-1-one] | 2.4 µM | 13.3 µM
CN1Cc2c(cccc2-c2ccccc2-c2ccc(CN3CCC(N(C)C)CC3)o2)C1=O [Compound 15, 2-methyl-4-(2-(5-((4-(dimethylamino)piperidine-1-yl)methyl)furan-2-yl)phenyl)isoindoline-1-one] | 2.56 µM | 15.8 µM
CN1Cc2c(cccc2-c2ccccc2-c2ccc(CN3CCN(C(C)(C)C(N)=O)CC3)o2)C1=O [Compound 16] | 1.75 µM | 15.8 µM

The remaining lines, values ahead:

IC50 [1] | IC50 [2] | Structure (SMILES)
3.61 µM | 14 µM | CN1Cc2c(cccc2-c2ccccc2-c2ccc(CNCc3ccccc3)o2)C1=O [Compound 17, 2-methyl-4-(2-(5-((benzylamino)methyl)furan-2-yl)phenyl)isoindoline-1-one]
1.4 µM | 13.9 µM | CNC(=O)C1(Cc2ccccc2)CCN(Cc2ccc(-c3ccccc3-c3cccc4c3CN(C)C4=O)o2)CC1 [Compound 19]
3.72 µM | 16.7 µM | CN1Cc2c(cccc2-c2ccccc2-c2ccc(CN3CCC(Cc4ccc(F)cc4)(C(=O)NCc4ccccc4)CC3)o2)C1=O [Compound 20]
1.19 µM | 13.7 µM | CN1Cc2c(cccc2-c2ccccc2-c2ccc(CN3CCC4(CC3)C(=O)NCC4c3ccc(F)cc3)o2)C1=O (centres unmarked) [Compound 22, 2-methyl-4-(2-(5-((4-(4-fluorophenyl)-2λ^2,8-diazaspiro[4,5]decan-1-one)methyl)furan-2-yl)phenyl)isoindoline-1-one]
1.3 µM | 15.3 µM | CN1Cc2c(cccc2-c2ccccc2-c2ccc(CN3CCC4(CC3)C(=O)N(C)CC4c3ccc(F)cc3)o2)C1=O (centres unmarked) [Compound 23, 2-methyl-4-(2-(5-(((4-(4-fluorophenyl)-2-methyl)-2λ^2,8-diazaspiro[4,5]decan-1-one)methyl)furan-2-yl)phenyl)isoindoline-1-one]
1.67 µM | 15.2 µM | CCC1(C(=O)NC)CCCN(Cc2ccc(-c3ccccc3-c3cccc4c3CN(C)C4=O)o2)C1 (centres unmarked) [Compound 24]
1.38 µM | 13 µM | CNC(=O)CC1C(=O)NCCN1Cc1ccc(-c2ccccc2-c2cccc3c2CN(C)C3=O)o1 (centres unmarked) [Compound 26]
4.86 µM | 14.6 µM | CN1Cc2c(cccc2-c2ccccc2-c2ccc(CN3CCC(Cc4ccccc4)(C(N)=O)CC3)o2)C1=O [Compound 29, 2-methyl-4-(2-(5-(((4-benzyl-4'-carboxamidyl)piperidine)methyl)furan-2-yl)phenyl)isoindoline-1-one]
2.78 µM | 15 µM | CN1Cc2c(cccc2-c2ccccc2-c2ccc(CN3CCC(Cc4ccncc4)(C(N)=O)CC3)o2)C1=O [Compound 31, 2-methyl-4-(2-(5-(((4-pyridinylmethyl-4'-carboxamidyl)piperidine)methyl)furan-2-yl)phenyl)isoindoline-1-one]
3.99 µM | 16.8 µM | CNC(=O)C1(Cc2ccc(F)cc2)CCN(C(=O)c2ccc(-c3ccccc3-c3cccc4c3CN(C)C4=O)o2)CC1 [Compound 32, 2-methyl-4-(2-(5-(((4-(4-fluorobenzyl)-4'-carboxamidyl)piperidine)carbonyl)furan-2-yl)phenyl)isoindoline-1-one]
2.39 µM | 11.1 µM | CNC(=O)c1ccc(-c2ccccc2-c2cccc3c2CN(C)C3=O)o1 [Compound 33, 2-methyl-4-(2-(5-((methylamino)carbonyl)furan-2-yl)phenyl)isoindoline-1-one]
4.68 µM | 15.7 µM | CNC(=O)C1(C)CN(C(=O)c2ccc(-c3ccccc3-c3cccc4c3CN(C)C4=O)o2)CCC1O (centres unmarked) [Compound 34]
4.26 µM | 14.5 µM | CCC1(C(=O)NC)CCCN(C(=O)c2ccc(-c3ccccc3-c3cccc4c3CN(C)C4=O)o2)C1 (centres unmarked) [Compound 36]
1.12 µM | 12.5 µM | CNCc1oc(-c2ccccc2-c2cccc3c2CN(C)C3=O)cc1C [Compound 38]
2.14 µM | 15.5 µM | CNC(=O)C1(C)CN(Cc2oc(-c3ccccc3-c3cccc4c3CN(C)C4=O)cc2C)CCC1O (centres unmarked) [Compound 41]
